Reference: article PMC2233905 (The Journal of General Physiology, 2004)

Legend:
[1] = molecular target: T1, hEag2 channels (Homo sapiens, UniProt Q8NCM2); assay: hEag2 channels expressed in Xenopus oocytes; assay type: cell-based
T1 sequence (Q8NCM2 1-988): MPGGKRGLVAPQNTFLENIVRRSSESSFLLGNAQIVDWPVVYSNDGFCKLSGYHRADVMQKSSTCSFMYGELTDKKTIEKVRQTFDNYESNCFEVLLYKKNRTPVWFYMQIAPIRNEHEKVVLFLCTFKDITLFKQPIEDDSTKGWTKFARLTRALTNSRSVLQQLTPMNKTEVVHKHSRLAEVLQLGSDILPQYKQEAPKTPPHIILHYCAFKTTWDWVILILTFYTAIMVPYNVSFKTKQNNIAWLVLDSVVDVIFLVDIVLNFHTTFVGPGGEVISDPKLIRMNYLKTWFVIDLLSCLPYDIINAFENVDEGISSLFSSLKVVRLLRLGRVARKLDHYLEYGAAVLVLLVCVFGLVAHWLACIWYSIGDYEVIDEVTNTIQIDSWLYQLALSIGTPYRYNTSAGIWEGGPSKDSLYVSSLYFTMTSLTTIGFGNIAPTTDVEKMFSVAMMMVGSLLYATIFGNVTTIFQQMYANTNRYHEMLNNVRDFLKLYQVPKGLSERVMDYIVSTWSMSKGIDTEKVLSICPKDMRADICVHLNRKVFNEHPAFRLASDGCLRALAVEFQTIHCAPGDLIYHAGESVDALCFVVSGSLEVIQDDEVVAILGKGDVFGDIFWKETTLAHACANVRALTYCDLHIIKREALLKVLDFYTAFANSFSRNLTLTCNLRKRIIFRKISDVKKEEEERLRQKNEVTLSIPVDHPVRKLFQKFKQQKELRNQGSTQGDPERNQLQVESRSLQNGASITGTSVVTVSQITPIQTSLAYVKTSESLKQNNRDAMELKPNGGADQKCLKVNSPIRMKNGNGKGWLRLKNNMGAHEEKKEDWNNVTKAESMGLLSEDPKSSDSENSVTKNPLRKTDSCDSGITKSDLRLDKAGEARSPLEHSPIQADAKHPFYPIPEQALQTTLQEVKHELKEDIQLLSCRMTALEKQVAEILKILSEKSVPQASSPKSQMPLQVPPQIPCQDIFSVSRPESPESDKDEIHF

[2] = molecular target: T2, Kv4.2 (Homo sapiens, UniProt Q9NZV8); assay: Kv4.2 channels; assay type: cell-based; details: concentrations up to 10 μM, unpublished data
T2 sequence (Q9NZV8 1-630): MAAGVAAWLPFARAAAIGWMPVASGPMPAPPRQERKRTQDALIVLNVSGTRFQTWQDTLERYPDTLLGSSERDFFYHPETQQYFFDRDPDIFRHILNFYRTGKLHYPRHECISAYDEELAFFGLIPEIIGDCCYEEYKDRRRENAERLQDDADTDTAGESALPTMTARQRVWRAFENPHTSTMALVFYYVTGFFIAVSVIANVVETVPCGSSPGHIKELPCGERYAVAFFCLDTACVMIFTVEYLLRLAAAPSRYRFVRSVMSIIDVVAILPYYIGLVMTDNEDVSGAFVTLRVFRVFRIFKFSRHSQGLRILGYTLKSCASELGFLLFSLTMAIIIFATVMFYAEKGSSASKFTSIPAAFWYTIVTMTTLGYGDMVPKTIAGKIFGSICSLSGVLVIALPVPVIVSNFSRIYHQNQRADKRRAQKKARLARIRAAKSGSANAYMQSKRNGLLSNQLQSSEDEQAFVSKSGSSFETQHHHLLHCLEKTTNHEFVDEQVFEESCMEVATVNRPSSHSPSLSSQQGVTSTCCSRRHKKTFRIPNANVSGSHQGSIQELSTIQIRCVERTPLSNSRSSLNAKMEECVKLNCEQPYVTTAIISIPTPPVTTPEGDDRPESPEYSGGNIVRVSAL

[3] = tested on: cloned HERG; details: HEK-293 cells; ref Zhou et al., 1999; cited from earlier work
[4] = tested on: cardiac IsK currents; details: concentrations up to 10 μM; ref Suessbrich et al., 1996; cited from earlier work
[5] = molecular target: T3, Kv2.1 (Homo sapiens, UniProt Q14721); assay: Kv2.1 channels; assay type: cell-based; details: concentrations up to 10 μM, unpublished data
T3 sequence (Q14721 1-858): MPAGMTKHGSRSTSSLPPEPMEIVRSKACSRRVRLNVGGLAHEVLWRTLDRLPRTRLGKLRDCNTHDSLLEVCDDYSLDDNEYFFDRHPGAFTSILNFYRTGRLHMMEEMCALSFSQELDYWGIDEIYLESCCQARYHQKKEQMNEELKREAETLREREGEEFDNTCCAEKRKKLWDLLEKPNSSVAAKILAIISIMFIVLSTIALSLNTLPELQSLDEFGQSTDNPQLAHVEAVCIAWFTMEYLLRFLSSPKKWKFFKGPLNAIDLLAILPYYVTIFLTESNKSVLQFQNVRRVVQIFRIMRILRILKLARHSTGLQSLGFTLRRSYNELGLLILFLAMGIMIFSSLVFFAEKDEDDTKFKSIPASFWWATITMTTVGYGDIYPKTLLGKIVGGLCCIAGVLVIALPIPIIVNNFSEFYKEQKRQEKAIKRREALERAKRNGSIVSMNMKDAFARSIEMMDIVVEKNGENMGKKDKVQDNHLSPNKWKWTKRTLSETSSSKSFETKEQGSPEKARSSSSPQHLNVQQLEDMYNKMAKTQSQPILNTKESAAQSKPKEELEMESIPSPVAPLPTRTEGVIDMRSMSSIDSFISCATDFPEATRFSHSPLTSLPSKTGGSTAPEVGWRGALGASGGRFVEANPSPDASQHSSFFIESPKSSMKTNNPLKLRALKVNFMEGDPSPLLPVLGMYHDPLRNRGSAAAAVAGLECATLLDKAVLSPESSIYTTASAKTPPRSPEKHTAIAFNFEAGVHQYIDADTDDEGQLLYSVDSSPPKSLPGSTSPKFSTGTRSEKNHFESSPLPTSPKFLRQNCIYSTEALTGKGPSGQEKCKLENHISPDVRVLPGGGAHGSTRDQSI

[6] = ref Fischer et al., 1997, 1998; cited from earlier work

COc1ccc(CCN2CCC(Nc3nc4ccccc4n3Cc3ccc(F)cc3)CC2)cc1 [astemizole]
IC50 [1]: ~1500 nM
effect on current [2]: no significant effects
IC50 [3]: 0.9 nM
effect on current [4]: no significant effects
effect on current [5]: no significant effects
pK a1 [6]: 5.6
pK a2 [6]: 8.5
